Results on 58 molecules are retold here after patent US8093279B2, “Compound” (priority 2005, dated 2012).

One data set has as its target T1, Aromatase (Homo sapiens, UniProt P11511).
T1 construct: host or cells: JEG3 choriocarcinoma cells (intact monolayers)
T1 sequence (P11511 1-503): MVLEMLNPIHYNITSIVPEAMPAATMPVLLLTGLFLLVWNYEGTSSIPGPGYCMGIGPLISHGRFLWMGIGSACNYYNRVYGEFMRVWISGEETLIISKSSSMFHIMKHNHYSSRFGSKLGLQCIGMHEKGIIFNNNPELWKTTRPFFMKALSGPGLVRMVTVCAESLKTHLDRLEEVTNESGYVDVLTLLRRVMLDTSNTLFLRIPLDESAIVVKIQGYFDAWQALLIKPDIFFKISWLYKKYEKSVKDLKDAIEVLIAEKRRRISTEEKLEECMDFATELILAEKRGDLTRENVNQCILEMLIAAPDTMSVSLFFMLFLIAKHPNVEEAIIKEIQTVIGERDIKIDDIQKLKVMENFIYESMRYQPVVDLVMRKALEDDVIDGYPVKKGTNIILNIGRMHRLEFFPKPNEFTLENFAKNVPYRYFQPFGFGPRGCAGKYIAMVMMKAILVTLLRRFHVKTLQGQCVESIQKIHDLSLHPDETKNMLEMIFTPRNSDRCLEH
Briefly: Aromatase activity in JEG3 choriocarcinoma cells (Protocol 6). It counts as cell-based. The conditions noted are these: for IC50: JEG3 cells. On the procedure:
Aromatase activity is measured in JEG3 choriocarcinoma cells, obtained from the ATCC.
During the aromatase reaction, ^3H2O is liberated which can be quantified using a liquid scintillation spectrometer (Beckman-Coulter, High Wycombe, Bucks. UK). […] The number of cell nuclei per flask is determined using a Coulter Counter after treating the cell monolayers with Z aponin.
Unpaired Student's t test was used to test the statistical significance of results.
A number of compounds were tested for aromatase and steroid sulphatase inhibition in accordance with the above Protocols 1 and 6.

The term IC50 denotes the concentration that inhibits the measured activity by half. Regarding `CN(C)S(=O)(=O)Oc1ccc(-c2cc(Cn3cncn3)ccc2C#N)cc1` [Compound 21, 5′-((1H-1,2,4-triazol-1-yl)methyl)-2′-cyanobiphenyl-4-yl dimethylsulfamate], on Aromatase, the IC50 is under 1 µM. For orientation: melting point means the temperature, or range, at which the solid turns liquid. Turning to `CN(C)S(=O)(=O)Oc1ccc(-c2cc(Cn3cncn3)ccc2C#N)cc1Cl` [Compound 24, 5′-((1H-1,2,4-triazol-1-yl)methyl)-3-chloro-2′-cyanobiphenyl-4-yl dimethylsulfamate], the melting point lay within 119 to 120 °C. Also, at Aromatase, the IC50 was under 1 µM.

`N#Cc1ccc(Cn2cncn2)cc1-c1ccc(Cl)c(O)c1` [Compound 25] showed a melting point of 228 to 229 °C. On Aromatase, the half-maximal inhibitory concentration (IC50) is under 1 µM. For `N#Cc1ccc(Cn2cncn2)cc1-c1ccc(Cl)c(OS(N)(=O)=O)c1` [Compound 26, 5′-((1H-1,2,4-triazol-1-yl)methyl)-4-chloro-2′-cyanobiphenyl-3-yl sulfamate] the same measures were 148 to 150 °C and under 1 µM. In turn, `N#Cc1ccc(-c2cccc(OS(N)(=O)=O)c2)cc1Cn1cncn1` [Compound 29, 3′-((1H-1,2,4-triazol-1-yl)methyl)-4′-cyanobiphenyl-3-yl sulfamate] registered a melting point of 137 to 138 °C. On Aromatase (@ 1 μM), the “JEG3-cells Aromatase, % at single concentration” value was found to be 63.4 ± 2.1% @ 1 μM. In the case of `N#Cc1cc(Cn2cncn2)cc(-c2ccccc2)c1` [Compound 34, 5-((1H-1,2,4-triazol-1-yl)methyl)biphenyl-3-carbonitrile], the melting point lay within 109 to 110 °C. At Aromatase, the IC50 is under 1 µM.

`N#Cc1cc(Cn2cncn2)cc(-c2ccc(F)cc2)c1` [Compound 35, 5-((1H-1,2,4-triazol-1-yl)methyl)-4′-fluorobiphenyl-3-carbonitrile] gave a melting point of 134 to 135 °C. The molecule further had a half-inhibitory concentration (IC50) at Aromatase of under 1 µM. Taken in the same sequence, the figures for `N#Cc1ccc(-c2cc(C#N)cc(Cn3cncn3)c2)cc1` [Compound 36, 5-((1H-1,2,4-triazol-1-yl)methyl)biphenyl-3,4′-dicarbonitrile] were 154 to 155 °C and under 1 µM.

`N#Cc1cc(Cn2cncn2)cc(-c2ccc(O)cc2)c1` [Compound 37, 5-((1H-1,2,4-triazol-1-yl)methyl)-4′-hydroxybiphenyl-3-carbonitrile] registered a melting point of 186 to 187 °C. Further, the IC50 against Aromatase is under 1 µM.

As to `N#Cc1cc(Cn2cncn2)cc(-c2ccc(OS(N)(=O)=O)cc2)c1` [Compound 38, 3′-((1H-1,2,4-triazol-1-yl)methyl)-5′-cyanobiphenyl-4-yl sulfamate], the melting point is 166 to 167 °C. The half-inhibitory concentration (IC50) against Aromatase is under 1 µM.

In turn, `N#Cc1cc(Cn2cncn2)cc(-c2ccc(O)c(Cl)c2)c1` [Compound 39] yielded a melting point of 208 to 209 °C. Moreover, the half-maximal inhibitory concentration (IC50) against Aromatase is under 1 µM. In turn, `N#Cc1cc(Cn2cncn2)ccc1-c1ccccc1` [Compound 46] came in with an IC50 against Aromatase of under 1 µM. Turning to `N#Cc1cc(Cn2cncn2)ccc1-c1ccc(O)cc1` [Compound 47], the melting point lay within 168 to 171 °C. In addition, the 50% inhibitory concentration (IC50) against Aromatase was under 1 µM. With `N#Cc1cc(Cn2cncn2)ccc1-c1ccc(O)c(Cl)c1` [Compound 49, 4-((1H-1,2,4-triazol-1-yl)methyl)-3′-chloro-4′-hydroxybiphenyl-2-carbonitrile], the melting point fell in the range of 195 to 197 °C. Moreover, on Aromatase, the IC50 is under 1 µM. Turning to `N#Cc1ccc(Cn2cncn2)c(-c2ccccc2)c1` [Compound 51], the IC50 on Aromatase is under 1 µM.

`N#Cc1ccc(Cn2cncn2)c(-c2ccc(O)c(Cl)c2)c1` [Compound 52, 6-((1H-1,2,4-triazol-1-yl)methyl)-3′-chloro-4′-hydroxybiphenyl-3-carbonitrile] returned a melting point of 243 to 245 °C. This molecule showed a half-maximal inhibitory concentration (IC50) against Aromatase of under 1 µM.

`N#Cc1ccc(Cn2cncn2)c(-c2ccc(OS(N)(=O)=O)c(Cl)c2)c1` [Compound 53, 2′-((1H-1,2,4-triazol-1-yl)methyl)-3-chloro-5′-cyanobiphenyl-4-yl sulfamate] registered a melting point of 139 to 142 °C. On Aromatase, this molecule showed an IC50 of under 1 µM. Regarding `CC(C)(C#N)c1cc(Cn2cncn2)cc(-c2ccc(OS(N)(=O)=O)cc2)c1` [Compound 56, 3′-((1H-1,2,4-triazol-1-yl)methyl)-5′-(2-cyanopropan-2-yl)biphenyl-4-yl sulfamate], the melting point was in the range of 74 to 76 °C. On Aromatase, this molecule displayed a 50% inhibitory concentration (IC50) of under 1 µM. `c1ccc(-c2cccc(Cn3cncn3)c2)cc1` [compound 1361] returned an IC50 against Aromatase of under 1 µM.

At Aromatase, `c1ccc(COc2ccc(-c3cccc(Cn4cncn4)c3)cc2)cc1` [compound 1362] showed a half-inhibitory concentration (IC50) of under 10 µM.

On to `Clc1cccc(-c2cccc(Cn3cncn3)c2)c1` [compound 1384], for which, on Aromatase, the IC50 is under 1 µM.

`c1cc(Cn2cncn2)cc(-c2ccc3ccccc3c2)c1` [compound 1385] displayed an IC50 at Aromatase of under 1 µM. Still for that read-out and setting: as for `Clc1ccc(-c2cccc(Cn3cncn3)c2)cc1` [compound 1386], the figure is under 1 µM; as for `Oc1ccc(-c2cccc(Cn3cncn3)c2)cc1` [compound 1387], under 1 µM; as for `c1ccc(-c2ccc(-c3cccc(Cn4cncn4)c3)cc2)cc1` [compound 1388], under 10 µM. As to `COc1ccc(-c2cccc(Cn3cncn3)c2)cc1` [compound 1452], at Aromatase, the IC50 was under 1 µM.

`N#Cc1ccc(-c2ccccc2)cc1Cn1cncn1` [compound 1456] registered an IC50 at Aromatase of under 1 µM. Regarding `N#Cc1ccc(-c2ccc(OCc3ccccc3)cc2)cc1Cn1cncn1` [compound 1457], the IC50 on Aromatase is under 10 µM. Still for that read-out and setting: as for `N#Cc1cccc(-c2cccc(Cn3cncn3)c2)c1` [compound 1458], the figure is under 1 µM; as for `N#Cc1ccc(-c2cccc(Cn3cncn3)c2)cc1` [compound 1459], under 1 µM. On the same count and under the same terms, under `Clc1cc(-c2cccc(Cn3cncn3)c2)ccc1OCc1ccccc1` [compound 1502] stands under 10 µM; under `N#Cc1ccc(-c2cccc(Cl)c2)cc1Cn1cncn1` [compound 1503], under 1 µM; under `N#Cc1ccc(-c2ccc3ccccc3c2)cc1Cn1cncn1` [compound 1504], under 1 µM. On the same count and under the same terms, as for `N#Cc1cccc(-c2ccc(C#N)c(Cn3cncn3)c2)c1` [compound 1505], the figure is under 10 µM; as for `CC(C)(C#N)c1cc(Cn2cncn2)cc(-c2ccccc2)c1` [compound 1506], under 1 µM; as for `CC(C)(C#N)c1cc(Cn2cncn2)cc(-c2cccc(Cl)c2)c1` [compound 1507], under 1 µM.

In the case of `CC(C)(C#N)c1cc(Cn2cncn2)cc(-c2ccc3ccccc3c2)c1` [compound 1508], the 50% inhibitory concentration (IC50) at Aromatase is under 1 µM. Same read-out and setting: as for `CC(C)(C#N)c1cc(Cn2cncn2)cc(-c2cccc(C#N)c2)c1` [compound 1509], the figure is under 1 µM; as for `N#Cc1ccc(-c2ccc(C#N)c(Cn3cncn3)c2)cc1` [compound 1510], under 1 µM; as for `O=C(c1ccccc1)c1cccc(-c2cccc(Cn3cncn3)c2)c1` [compound 1511], under 1 µM.

With `COc1ccc(-c2cccc(Cn3cncn3)c2)cc1Cl` [compound 1512], the 50% inhibitory concentration (IC50) against Aromatase is under 1 µM. Same read-out and setting: as for `Oc1ccc(-c2cccc(Cn3cncn3)c2)cc1Cl` [compound 1519], the figure is under 1 µM; as for `N#Cc1ccc(-c2ccc(O)cc2)cc1Cn1cncn1` [compound 1520], under 1 µM; as for `CC(C)(C#N)c1cc(Cn2cncn2)cc(-c2ccc(O)cc2)c1` [compound 1521], under 1 µM. As for `Fc1cccc(-c2cccc(Cn3cncn3)c2)c1` [compound 1524], the half-inhibitory concentration (IC50) against Aromatase is under 1 µM. The same measure, in the same setting: as for `Fc1ccc(-c2cccc(Cn3cncn3)c2)cc1` [compound 1525], the figure is under 1 µM.

On Aromatase, `c1ccc(Oc2ccccc2-c2ccc(Cn3cncn3)cc2)cc1` [compound 1835] gave a half-maximal inhibitory concentration (IC50) of under 1 µM. For `CC(=O)c1cccc(-c2cccc(Cn3cncn3)c2)c1` [compound 1838], the IC50 on Aromatase was under 1 µM.

As for `c1cc(Cn2cncn2)cc(-c2cccc3c2oc2ccccc23)c1` [compound 1839], the half-inhibitory concentration (IC50) at Aromatase was under 1 µM. Regarding `Oc1cccc(-c2cccc(Cn3cncn3)c2)c1` [compound 1840], the IC50 against Aromatase is under 1 µM. Still for that read-out and setting: under `Fc1ccc(-c2ccccc2)cc1Cn1cncn1` [compound 1841] stands under 1 µM. The same measure, in the same setting: under `Oc1ccc(-c2ccc(F)c(Cn3cncn3)c2)cc1` [compound 1842] stands under 1 µM. On the same count and under the same terms, under `N#Cc1ccc(-c2cccc(O)c2)cc1Cn1cncn1` [compound 1843] stands under 1 µM; under `CC(C)(C#N)c1cc(Cn2cncn2)cc(-c2cccc(C(=O)c3ccccc3)c2)c1` [compound 1844], under 1 µM.

As for `c1ccc(-c2ccc(Cn3cncn3)cc2)cc1` [compound 1975], the half-maximal inhibitory concentration (IC50) against Aromatase is under 10 µM. For `N#Cc1ccc(Cn2cncn2)cc1-c1ccccc1` [compound 1978], the IC50 against Aromatase is under 1 µM. Same read-out and setting: under `COc1ccc2cc(-c3cccc(Cn4cncn4)c3)ccc2c1` [compound 1981] stands under 1 µM; under `NS(=O)(=O)Oc1ccc2cc(-c3cccc(Cn4cncn4)c3)ccc2c1` [compound 2052], under 10 µM.
